The text below walks through data of patent publication US20180265515A1 (Genentech, Inc., priority 2015, published 2018).

The target in test [1] is T1, isolated recombinant JAK1 kinase domain (Homo sapiens, UniProt P23458).
T1 construct: The activity of the isolated recombinant JAK1 and JAK2 kinase domain was measured
In words: JAK1 enzyme assay (Caliper LabChip, Ki). The following applies: recombinant JAK1 kinase domain, 25 μM ATP. Type of test: biochemical. The method, then:
(§1) JAK Enzyme Assays were Carried Out as Follows:
(§2) The activity of the isolated recombinant JAK1 and JAK2 kinase domain was measured by monitoring phosphorylation of a peptide derived from JAK3 (Val-Ala-Leu-Val-Asp-Gly-Tyr-Phe-Arg-Leu-Thr-Thr, fluorescently labeled on the N-terminus with 5-carboxyfluorescein) using the Caliper LabChip® technology (Caliper Life Sciences, Hopkinton, Mass.). […] Reactions were incubated at 22° C. in 384-well polypropylene microtiter plates for 30 minutes and then stopped by addition of 25 μL of an EDTA containing solution (100 mM HEPES buffer (pH 7.2), 0.015% Brij-35, 150 mM EDTA), resulting in a final EDTA concentration of 50 mM. After termination of the kinase reaction, the proportion of phosphorylated product was determined as a fraction of total peptide substrate using the Caliper LabChip® 3000 according to the manufacturer's specifications. Ki values were then determined using the Morrison tight binding model (Morrison, J. F., Biochim. Biophys. Acta. 185:269-296 (1969); William, J. W. and Morrison, J. F., Meth. Enzymol., 63:437-467 (1979)) modified for ATP-competitive inhibition [Ki=Ki,app/(1+[ATP]/Km,app)].

The target in test [2] is T2, isolated recombinant JAK2 kinase domain (Homo sapiens, UniProt O60674).
T2 construct: The activity of the isolated recombinant JAK1 and JAK2 kinase domain was measured
In words: JAK2 enzyme assay (Caliper LabChip, Ki). The test is classed as biochemical. Particulars: 25 μM ATP. The method, then:
as §1, §2

In test [3] the test system is JAK1-dependent STAT6 phosphorylation downstream of IL-13 stimulation in BEAS-2B human bronchial epithelial cells. In words: JAK1 pathway assay in BEAS-2B cells (IL-13 stimulated STAT6 phosphorylation, MSD). The test is classed as cell-based. Particulars: read-out: P-STAT6 BEAS2B + IL13 IC50. The protocol: JAK1 Pathway Assay in Cell Lines was Carried Out as Follows:
Inhibitor potency (EC50) was determined in cell-based assays designed to measure JAK1 dependent STAT phosphorylation. As noted above, inhibition of IL-4, IL-13, and IL-9 signaling by blocking the Jak/Stat signaling pathway can alleviate asthmatic symptoms in pre-clinical lung inflammation models (Mathew et al., 2001, J Exp Med 193(9): 1087-1096; Kudlacz et. al., 2008, Eur J. Pharmacol 582(1-3): 154-161).
In one assay approach, TF-1 human erythroleukemia cells obtained from the American Type Culture Collection (ATCC; Manassas, Va.) were used to measure JAK1-dependent STAT6 phosphorylation downstream of IL-13 stimulation. Prior to use in the assays, TF-1 cells were starved of GM-CSF overnight in OptiMEM medium (Life Technologies, Grand Island, N.Y.) supplemented with 0.5% charcoal/dextran stripped fetal bovine serum (FBS), 0.1 mM non-essential amino acids (NEAA), and 1 mM sodium pyruvate. The assays were run in 384-well plates in serum-free OptiMEM medium using 300,000 cells per well. In a second assay approach, BEAS-2B human bronchial epithelial cells obtained from ATCC were plated at 100,000 cells per well of a 96-well plate one day prior to the experiment. The BEAS-2B assay was run in complete growth medium (bronchial epithelial basal medium plus bulletkit; Lonza; Basel, Switzerland).
Test compounds were serially diluted 1:2 in DMSO and then diluted 1:50 in medium just before use. Diluted compounds were added to the cells, for a final DMSO concentration of 0.2%, and incubated for 30 min (for the TF-1 assay) or 1 hr (for the BEAS-2B assay) at 37° C. Then, cells were stimulated with human recombinant cytokine at their respective EC90 concentrations, as previously determined for each individual lot. Cells were stimulated with IL-13 (R&D Systems, Minneapolis, Minn.) for 15 min at 37° C. The TF-1 cell reactions were stopped by the direct addition of 10× lysis buffer (Cell Signaling Technologies, Danvers, Mass.), whereas the BEAS-2B cell incubations were halted by the removal of medium and addition of 1× lysis buffer. The resultant samples were frozen in the plates at −80° C. Compound mediated inhibition of STAT6 phosphorylation was measured in the cell lysates using MesoScale Discovery (MSD) technology (Gaithersburg, Md.). EC50 values were determined as the concentration of compound required for 50% inhibition of STAT phosphorylation relative to that measured for the DMSO control.

T1 sequence (P23458 875-1153 limits assumed): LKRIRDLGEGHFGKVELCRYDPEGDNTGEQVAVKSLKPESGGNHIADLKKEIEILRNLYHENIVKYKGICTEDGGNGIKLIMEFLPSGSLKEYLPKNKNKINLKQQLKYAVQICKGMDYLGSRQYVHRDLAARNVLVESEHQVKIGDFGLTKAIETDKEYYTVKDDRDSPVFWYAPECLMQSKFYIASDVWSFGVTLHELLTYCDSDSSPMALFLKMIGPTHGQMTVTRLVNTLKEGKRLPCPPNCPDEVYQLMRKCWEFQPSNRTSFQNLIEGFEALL
T2 sequence (O60674 849-1124 limits assumed): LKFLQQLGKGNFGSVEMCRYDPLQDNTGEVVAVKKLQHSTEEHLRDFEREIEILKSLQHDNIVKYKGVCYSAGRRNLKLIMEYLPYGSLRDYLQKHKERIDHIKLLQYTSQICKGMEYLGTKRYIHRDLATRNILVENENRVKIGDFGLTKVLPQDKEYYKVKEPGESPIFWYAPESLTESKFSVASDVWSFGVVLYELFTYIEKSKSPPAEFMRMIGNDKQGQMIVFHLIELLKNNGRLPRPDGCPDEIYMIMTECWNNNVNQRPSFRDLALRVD

On to `CSc1ccc(OC(F)F)c(-c2n[nH]cc2NC(=O)c2cnn3cccnc23)c1` [Example 1, N-(3-(2-(difluoromethoxy)-5-(methylthio)phenyl)-1H-pyrazol-4-yl)pyrazolo[1,5-a]pyrimidine-3-carboxamide], for which the Ki was found to be 0.079 nM in test [1] and 0.041 nM in test [2]. Also, the IC50 in test [3] came to 2.6 nM.
For `CSc1ccc(OC(F)F)c(-c2nn(CC(=O)N3CCC(N(C)CCC#N)CC3)cc2NC(=O)c2cnn3cccnc23)c1` [Example 2, N-[1-[2-[4-[2-cyanoethyl(methyl)amino]-1-piperidyl]-2-oxo-ethyl]-3-[2-(difluoromethoxy)-5-methylsulfanyl-phenyl]pyrazol-4-yl]pyrazolo[1,5-a]pyrimidine-3-carboxamide], in that order: 0.28 nM, 0.42 nM and 25 nM.
On the same counts, the results for `C[S+]([O-])c1ccc(OC(F)F)c(-c2n[nH]cc2NC(=O)c2cnn3cccnc23)c1` (stereo not drawn) [Example 3, N-[3-[2-(difluoromethoxy)-5-methylsulfinyl-phenyl]-1H-pyrazol-4-yl]pyrazolo[1,5-a]pyrimidine-3-carboxamide] are 1.7 nM, 0.57 nM and 430 nM.
For `CS(=O)(=O)c1ccc(OC(F)F)c(-c2n[nH]cc2NC(=O)c2cnn3cccnc23)c1` [Example 4, N-[3-[2-(difluoromethoxy)-5-methylsulfonyl-phenyl]-1H-pyrazol-4-yl]pyrazolo[1,5-a]pyrimidine-3-carboxamide], in that order: 0.45 nM, 0.16 nM and 35 nM.
As for `CSc1ccc(OC(F)F)c(-c2nn(CC(=O)N3CCC(N4CCOCC4)CC3)cc2NC(=O)c2cnn3cccnc23)c1` [Example 5, N-(3-(2-(difluoromethoxy)-5-(methylthio)phenyl)-1-(2-(4-morpholinopiperidin-1-yl)-2-oxoethyl)-1H-pyrazol-4-yl)pyrazolo[1,5-a]pyrimidine-3-carboxamide], the Ki was determined as 0.29 nM in test [1] and 0.4 nM in test [2]. Further, the IC50 in test [3] was 15 nM.
For `CCN1CCN(C(=O)Cn2cc(NC(=O)c3cnn4cccnc34)c(-c3cc(SC)ccc3OC(F)F)n2)CC1` [Example 6, N-[3-[2-(difluoromethoxy)-5-methylsulfanyl-phenyl]-1-[2-(4-ethylpiperazin-1-yl)-2-oxo-ethyl]pyrazol-4-yl]pyrazolo[1,5-a]pyrimidine-3-carboxamide], in that order: 0.49 nM, 0.61 nM and 18 nM.
In the case of `CSc1ccc(OC(F)F)c(-c2nn(CC(=O)N3CCC(CN4CCOCC4)CC3)cc2NC(=O)c2cnn3cccnc23)c1` [Example 7, N-[3-[2-(difluoromethoxy)-5-methylsulfanyl-phenyl]-1-[2-[4-(morpholinomethyl)-1-piperidyl]-2-oxo-ethyl]pyrazol-4-yl]pyrazolo[1,5-a]pyrimidine-3-carboxamide], the Ki in test [1] came to 0.3 nM; in test [2], 0.49 nM. In test [3], the IC50 amounted to 4.8 nM.
For `CSc1ccc(OC(F)F)c(-c2nn(CC(=O)N3CCC(NCCC#N)CC3)cc2NC(=O)c2cnn3cccnc23)c1` [Example 8, N-[1-[2-[4-(2-cyanoethylamino)-1-piperidyl]-2-oxo-ethyl]-3-[2-(difluoromethoxy)-5-methylsulfanyl-phenyl]pyrazol-4-yl]pyrazolo[1,5-a]pyrimidine-3-carboxamide], in that order: 0.29 nM, 0.39 nM and 18 nM.
For `CSc1ccc(OC(F)F)c(-c2nn([C@H]3CCCNC3)cc2NC(=O)c2cnn3cccnc23)c1` [Example 9, N-[3-[2-(difluoromethoxy)-5-methylsulfanyl-phenyl]-1-[(3S)-3-piperidyl]pyraxol-4-yl]pyrazolo[1,5-a]pyrimidine-3-carboxamide], in that order: 0.44 nM, 0.28 nM and 5.2 nM.
On the same counts, the results for `CSc1ccc(OC(F)F)c(-c2nn(CCN[C@H]3CCOC3)cc2NC(=O)c2cnn3cccnc23)c1` [Example 10, N-[3-[2-(difluoromethoxy)-5-methylsulfanyl-phenyl]-1-[2-[[(3S)-tetrahydrofuran-3-yl]amino]ethyl]pyrazol-4-yl]pyrazolo[1,5-a]pyrimidine-3-carboxamide] are 0.49 nM, 0.27 nM and 8.8 nM.
As to `CSc1ccc(OC(F)F)c(-c2nn(CCN[C@@H]3CCOC3)cc2NC(=O)c2cnn3cccnc23)c1` [Example 11, (R)—N-(3-(2-(difluoromethoxy)-5-(methylthio)phenyl)-1-(2-((tetrahydrofuran-3-yl)amino)ethyl)-1H-pyrazol-4-yl)pyrazolo[1,5-a]pyrimidine-3-carboxamide], the Ki in test [1] was determined as 0.32 nM; in test [2] it was 0.21 nM. In test [3], the IC50 worked out at 5.9 nM.
For `CSc1ccc(OC(F)F)c(-c2nn([C@H]3CCCN(C)C3)cc2NC(=O)c2cnn3cccnc23)c1` [Example 12, (S)—N-(3-(2-(difluoromethoxy)-5-(methylthio)phenyl)-1-(1-methylpiperidin-3-yl)-1H-pyrazol-4-yl)pyrazolo[1,5-a]pyrimidine-3-carboxamide], in that order: 0.41 nM, 0.32 nM and 6 nM.
For `CSc1ccc(OC(F)F)c(-c2nn(CC(=O)N3CCC(N(C)CC(=O)N(C)C)CC3)cc2NC(=O)c2cnn3cccnc23)c1` [Example 13, N-[3-[2-(difluoromethoxy)-5-methylsulfanyl-phenyl]-1-[2-[4-[[2-(dimethylamino)-2-oxo-ethyl]-methyl-amino]-1-piperidyl]-2-oxo-ethyl]pyrazol-4-yl]pyrazolo[1,5-a]pyrimidine-3-carboxamide], in that order: 0.44 nM, 0.9 nM and 57 nM.
On the same counts, the results for `CSc1ccc(OC(F)F)c(-c2nn(CC(=O)N3CCC(N(C)CC(=O)N4CCCC4)CC3)cc2NC(=O)c2cnn3cccnc23)c1` [Example 14] are 0.32 nM, 0.68 nM and 89 nM.
`CSc1ccc(OC(F)F)c(-c2nn(CC(=O)N3CCC(N4CCNC(=O)C4)CC3)cc2NC(=O)c2cnn3cccnc23)c1` [Example 15, N-[3-[2-(difluoromethoxy)-5-methylsulfanyl-phenyl]-1-[2-oxo-2-[4-(3-oxopiperazin-1-yl)-1-piperidyl]ethyl]pyrazol-4-yl]pyrazolo[1,5-a]pyrimidine-3-carboxamide]: the Ki in test [1] was determined as 0.28 nM; in test [2], 0.38 nM. In addition, in test [3], the IC50 was determined as 310 nM.
For `CSc1ccc(OC(F)F)c(-c2nn(CC(=O)N3CCN(CCN4CCOCC4)CC3)cc2NC(=O)c2cnn3cccnc23)c1` [Example 16, N-[3-[2-(difluoromethoxy)-5-methylsulfanyl-phenyl]-1-[2-[4-(2-morpholinoethyl)piperazin-1-yl]-2-oxo-ethyl]pyrazol-4-yl]pyrazolo[1,5-a]pyrimidine-3-carboxamide], in that order: 0.39 nM, 0.5 nM and 18 nM.

Usually Ki stands for the equilibrium dissociation constant of an inhibitor or competing ligand from its target. One may read the IC50 as the concentration needed to halve the response being measured.
